Test results published in patent US10526271B2, “Compositions and methods related to half salts of herbicidal carboxylic acids” (Dow AgroSciences LLC, priority 2015, dated 2020).

Assays:
[1] = Volatility by thermogravometric analysis (TGA) weight loss at elevated temperature; format: physicochemical; conditions: 120° C., linear region of weight loss curve
Method: The volatility of the 2,4-D potassium half salt (as a concentrated aqueous suspension) was compared to that of 2,4-D acid (as technical solid), 2,4-D ethylhexyl ester (EHE, as technical liquid), and 2,4-D dimethylammonium (DMA) and 2,4-D dimethylethanolammonium (DMEA) salts (both as concentrated aqueous solutions) by thermogravometric analysis (TGA) weight loss at elevated temperature. Each of the 2,4-D samples was added in turn (approximately 25-30 mg) to the reservoir cup of a TA Instruments Model 2050 TGA instrument. The temperature was maintained at 120° C. and the weight loss was recorded as a function of time.
For the water-containing samples, rapid weight loss was observed during water removal followed by a linear region (constant rate of loss). Linear curve fitting was applied in this region of the curve to determine rate of 2,4-D loss in μg/min.

[2] = test system: common lambsquarters (CHEAL); assay: Greenhouse postemergence weed control, common lambsquarters; format: in vivo; conditions: 800 g ae/ha, no adjuvant, 21 DAA
Method: (§1) Plant material was propagated in the Indianapolis greenhouses under warm temperature conditions of 26 to 28° C. and a 16 hour day length and 8 hour dark cycle. Natural light was supplemented with 1000-watt metal halide overhead lamps with an average illumination of 500 μE m−2 s−1 photosynthetic active radiation for 16 consecutive hours each day. Seeds of each species were planted in 10 cm square pots containing a potting soil, Metro-Mix 360®. Metro-mix 360® consists of Canadian sphagnum peat moss, coarse perlite, bark ash, a starter nutrient charge (with gypsum), a slow-release nitrogen fertilizer and dolomitic limestone. Plants were top watered prior to treatment and sub-irrigated after treatment. Plant material was fertilized three times a week with Jack's fertilizer solution (Jack's Professional 15-5-15 4 Ca 2 Mg fertilizer manufactured by JR PETERS INC.; 6656 Grant Way; Allentown, Pa. 18106). Appropriate amounts of herbicides were weighed and diluted with Indianapolis tap water.
(§2) All treatments were applied to selected plant species with a track sprayer (Generation III Research Sprayer manufactured by DeVries Manufacturing in Hollandale, Minn., USA) located in building 306, laboratory E1-483, at the Dow AgroSciences facility in Indianapolis, Ind. The track sprayer was calibrated to deliver 140 L/ha at 40 psi ([…]) pressure utilizing an 8002E even, flat fan nozzle. Track sprayer speed was set at 1.6 mph ([…]). Applications were made to replicates of each species in a randomized complete block design, with 4 replications per treatment.
(§3) All species were evaluated at 15 or 21 days after application (DAA). The treated plants and control plants were evaluated using a rating scale of 0-100%, wherein 0% indicates no injury or control of the vegetation and 100% indicates complete death of the plants.

redroot pigweed (AMARE) = assay: Greenhouse postemergence weed control, redroot pigweed; format: in vivo; conditions: 800 g ae/ha, no adjuvant, 21 DAA
Method: as §1, §2, §3

sicklepod (CASOB) = assay: Greenhouse postemergence weed control, sicklepod; format: in vivo; conditions: 800 g ae/ha, no adjuvant, 21 DAA
Method: as §1, §2, §3

common ragweed (AMBTR) = assay: Greenhouse postemergence weed control, common ragweed; format: in vivo; conditions: 800 g ae/ha, no adjuvant, 21 DAA
Method: as §1, §2, §3

Row | SMILES | Rate of Loss [1] [µg/min] | % Control CHEAL [2] [%] | % Control AMARE (redroot pigweed (AMARE)) [%] | % Control CASOB (sicklepod (CASOB)) [%] | % Control AMBTR (common ragweed (AMBTR)) [%]
1 | O=C(O)COc1ccc(Cl)cc1Cl [2,4-D Acid, 2,4-dichlorophenoxyacetic acid] | 2.29 |  |  |  | 
2 | C[N+](C)(C)CCO.O=C([O-])COc1ccc(Cl)cc1Cl [2,4-D Choline] |  | 74 | 95 |  | 
3 | CNC.O=C(O)COc1ccc(Cl)cc1Cl [2,4-D DMA, 2,4-D dimethylammonium] | 1.5 | 73 | 91 | 95 | 100
4 | CN(C)CCO.O=C(O)COc1ccc(Cl)cc1Cl [2,4-D DMEA, 2,4-D dimethylethanolammonium] | 0.905 |  |  |  | 
5 | CCCCC(CC)COC(=O)COc1ccc(Cl)cc1Cl (stereo not drawn) [2,4-D EHE, 2,4-D ethylhexyl ester] | 11 |  |  |  | 
6 | O=C(O)COc1ccc(Cl)cc1Cl.O=C([O-])COc1ccc(Cl)cc1Cl.[K+] [2,4-D K Half Salt, 2,4-D Potassium Half Salt] | 0.132 | 84 | 91 | 100 | 100
7 | N.O=C(O)COc1ccc(Cl)cc1Cl.O=C(O)COc1ccc(Cl)cc1Cl [2,4-D NH4 half-salt] |  | 74 | 91 | 100 | 100
8 | N.O=C(O)COc1ccc(Cl)cc1Cl [2,4-D NH4] |  | 92 | 95 | 100 | 99
9 | O=C(O)COc1ccc(Cl)cc1Cl.O=C([O-])COc1ccc(Cl)cc1Cl.[Na+] [2,4-D Na half-salt, 2,4-D Sodium Half Salt] |  | 85 | 92 | 100 | 100
